The compounds below were run against APJ receptor (Homo sapiens (Human), UniProt P35414) (assay: [35S]GTPγS binding assay on membranes from CHO cells stably expressing human APJ receptor). Conditions: membranes of CHO cells stably expressing human APJ receptor, means of several independent experiments, read-out: Activity hAPJ SPA EC50 IP.
Type: biochemical
In short: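 EC50 values were obtained by non-linear regression of [35S]GTPγS (0.2 nM) binding after 90 min at RT, with nonspecific binding defined by 100 μM GTPγS. Reactions used human APJ–expressing CHO cell membranes on WGA PS beads in HEPES pH 7.5 buffer with 5 mM MgCl2, 200 mM NaCl, 3 μM GDP and 0.1% BSA.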

Sequence of APJ receptor (P35414 whole entry): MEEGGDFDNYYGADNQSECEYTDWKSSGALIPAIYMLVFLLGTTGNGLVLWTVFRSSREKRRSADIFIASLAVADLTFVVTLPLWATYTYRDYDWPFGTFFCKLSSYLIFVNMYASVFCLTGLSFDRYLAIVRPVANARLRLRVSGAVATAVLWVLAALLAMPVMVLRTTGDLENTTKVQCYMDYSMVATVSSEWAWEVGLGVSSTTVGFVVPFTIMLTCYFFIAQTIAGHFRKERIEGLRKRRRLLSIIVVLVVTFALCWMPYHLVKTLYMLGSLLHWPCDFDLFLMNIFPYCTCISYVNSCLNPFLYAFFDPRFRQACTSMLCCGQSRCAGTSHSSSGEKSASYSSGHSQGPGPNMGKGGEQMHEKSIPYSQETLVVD

Point of comparison: `COc1cccc(OC)c1-n1c(NS(=O)(=O)[C@@H](C)[C@@](C)(O)c2ncc(F)cn2)nnc1-c1ccc(C)o1` [Example 242.0, (2S,3S)—N-(4-(2,6-Dimethoxyphenyl)-5-(5-methyl-2-furanyl)-4H-1,2,4-triazol-3-yl)-3-(5-fluoro-2-pyrimidinyl)-3-hydroxy-2-butanesulfonamide], EC50 0.81 nM. Against it:
- COc1cccc(OC)c1-n1c(NS(=O)(=O)[C@H]2C[C@@H](O)CN(c3cncc(C#N)n3)C2)nnc1-c1ccc(C)o1 (single isomer, unassigned) [Example 321.0, (3S,5R)-1-(6-Cyano-2-pyrazinyl)-N-(4-(2,6-dimethoxyphenyl)-5-(5-methyl-2-furanyl)-4H-1,2,4-triazol-3-yl)-5-hydroxy-3-piperidinesulfonamide or (3R,5S)-1-(6-cyano-2-pyrazinyl)-N-(4-(2,6-dimethoxyphenyl)-5-(5-methyl-2-furanyl)-4H-1,2,4-triazol-3-yl)-5-hydroxy-3-piperidinesulfonamide] — 4.5-fold lower, 0.18 nM
- COc1cccc(OC)c1-n1c(NS(=O)(=O)[C@@H](C)[C@@H](O)c2cc3ccccn3n2)nnc1-c1ccc(C)o1 (single isomer, unassigned) [Example 271.0, (1S,2S)—N-(4-(2,6-Dimethoxyphenyl)-5-(5-methyl-2-furanyl)-4H-1,2,4-triazol-3-yl)-1-hydroxy-1-pyrazolo[1,5-a]pyridin-2-yl-2-propanesulfonamide or (1R,2R)—N-(4-(2,6-dimethoxyphenyl)-5-(5-methyl-2-furanyl)-4H-1,2,4-triazol-3-yl)-1-hydroxy-1-pyrazolo[1,5-a]pyridin-2-yl-2-propanesulfonamide] — within 1.5-fold, 0.62 nM
- COc1cccc(OC)c1-n1c(NS(=O)(=O)[C@H]2COC[C@@H]2c2ncc(F)cn2)nnc1-c1ccco1 (racemic) [Example 180.0, (3R,4S)—N-(4-(2,6-Dimethoxyphenyl)-5-(2-furanyl)-4H-1,2,4-triazol-3-yl)-4-(5-fluoro-2-pyrimidinyl)tetrahydro-3-furansulfonamide and (3S,4R)—N-(4-(2,6-dimethoxyphenyl)-5-(2-furanyl)-4H-1,2,4-triazol-3-yl)-4-(5-fluoro-2-pyrimidinyl)tetrahydro-3-furansulfonamide] — 4.4-fold higher, 3.6 nM
- COC[C@@H](Cc1ncc(F)cn1)S(=O)(=O)Nc1nnc(-c2ccc(C)o2)n1-c1c(OC)cccc1OC (single isomer, unassigned) [Example 78.0, (2R)—N-(4-(2,6-Dimethoxyphenyl)-5-(5-methyl-2-furanyl)-4H-1,2,4-triazol-3-yl)-1-(5-fluoro-2-pyrimidinyl)-3-methoxy-2-propanesulfonamide or (2S)—N-(4-(2,6-dimethoxyphenyl)-5-(5-methyl-2-furanyl)-4H-1,2,4-triazol-3-yl)-1-(5-fluoro-2-pyrimidinyl)-3-methoxy-2-propanesulfonamide] — within 1.5-fold, 0.77 nM
- COc1cccc(OC)c1-n1c(NS(=O)(=O)[C@H](C)[C@H](O)c2cccc(C)n2)nnc1-c1ccc(C)o1 (stereo in doubt) [Example 87.0] — 2-fold lower, 0.41 nM
- COc1cccc(OC)c1-n1c(NS(=O)(=O)[C@H](C)Cc2ncc(F)cn2)nnc1-c1cc(C)c(C)o1 (single isomer, unassigned) [Example 91.0, (R)—N-(4-(2,6-Dimethoxyphenyl)-5-(4,5-dimethylfuran-2-yl)-4H-1,2,4-triazol-3-yl)-1-(5-fluoropyrimidin-2-yl)propane-2-sulfonamide or (S)—N-(4-(2,6-dimethoxyphenyl)-5-(4,5-dimethylfuran-2-yl)-4H-1,2,4-triazol-3-yl)-1-(5-fluoropyrimidin-2-yl)propane-2-sulfonamide] — 5.2-fold higher, 4.2 nM
- COc1cccc(OC)c1-n1c(NS(=O)(=O)[C@@H](C)[C@H](O)c2cccc3nccn23)nnc1-c1ccc(C)o1 (single isomer, unassigned) [Example 299.0, (1R,2S)—N-(4-(2,6-Dimethoxyphenyl)-5-(5-methyl-2-furanyl)-4H-1,2,4-triazol-3-yl)-1-hydroxy-1-imidazo[1,2-a]pyridin-5-yl-2-propanesulfonamide or (1S,2R)—N-(4-(2,6-dimethoxyphenyl)-5-(5-methyl-2-furanyl)-4H-1,2,4-triazol-3-yl)-1-hydroxy-1-imidazo[1,2-a]pyridin-5-yl-2-propanesulfonamide] — 14-fold higher, 11 nM
- COc1cccc(OC)c1-n1c(NS(=O)(=O)[C@H]2CON(C)[C@@H]2c2ncc(F)cn2)nnc1-c1ccco1 (single isomer, unassigned) [Example 343.0, (3R,4R)—N-(4-(2,6-Dimethoxyphenyl)-5-(furan-2-yl)-4H-1,2,4-triazol-3-yl)-3-(5-fluoropyrimidin-2-yl)-2-methylisoxazolidine-4-sulfonamide or (3S,4S)—N-(4-(2,6-dimethoxyphenyl)-5-(furan-2-yl)-4H-1,2,4-triazol-3-yl)-3-(5-fluoropyrimidin-2-yl)-2-methylisoxazolidine-4-sulfonamide] — 250-fold higher, 200 nM
- COc1cccc(OC)c1-n1c(NS(=O)(=O)[C@H]2C[C@@H](O)CN(c3ncc(Cl)cn3)C2)nnc1-c1ccc(C)o1 (racemic) [Example 328.0, (3S,5R)-1-(5-Chloro-2-pyrimidinyl)-N-(4-(2,6-dimethoxyphenyl)-5-(5-methyl-2-furanyl)-4H-1,2,4-triazol-3-yl)-5-hydroxy-3-piperidinesulfonamide and (3R,5S)-1-(5-chloro-2-pyrimidinyl)-N-(4-(2,6-dimethoxyphenyl)-5-(5-methyl-2-furanyl)-4H-1,2,4-triazol-3-yl)-5-hydroxy-3-piperidinesulfonamide] — 2.7-fold lower, 0.3 nM
- COc1cccc(OC)c1-n1c(NS(=O)(=O)[C@H](C)[C@@H](O)c2cn(C)cn2)nnc1-c1ccc(C)o1 (racemic) [Example 283.0, (1R,2S)—N-(4-(2,6-Dimethoxyphenyl)-5-(5-methyl-2-furanyl)-4H-1,2,4-triazol-3-yl)-1-hydroxy-1-(1-methyl-1H-imidazol-4-yl)-2-propanesulfonamide and (1S,2R)—N-(4-(2,6-dimethoxyphenyl)-5-(5-methyl-2-furanyl)-4H-1,2,4-triazol-3-yl)-1-hydroxy-1-(1-methyl-1H-imidazol-4-yl)-2-propanesulfonamide] — 1.7-fold higher, 1.4 nM
- COc1cccc(OC)c1-n1c(NS(=O)(=O)[C@H](C)[C@@H](O)c2cc3n(n2)CCCO3)nnc1-c1ccc(C)o1 (racemic) [Example 290.0] — 6.2-fold higher, 5 nM
- COc1cccc(OC)c1-n1c(NS(=O)(=O)[C@@H]2C[C@H](C#N)CN(c3ncc(F)cn3)C2)nnc1-c1ccc(C)o1 (single isomer, unassigned) [Example 174.0, (3R,5S)-5-Cyano-N-(4-(2,6-dimethoxyphenyl)-5-(5-methyl-2-furanyl)-4H-1,2,4-triazol-3-yl)-1-(5-fluoro-2-pyrimidinyl)-3-piperidinesulfonamide or (3S,5R)-5-cyano-N-(4-(2,6-dimethoxyphenyl)-5-(5-methyl-2-furanyl)-4H-1,2,4-triazol-3-yl)-1-(5-fluoro-2-pyrimidinyl)-3-piperidinesulfonamide] — 2.3-fold higher, 1.9 nM
- COc1cccc(OC)c1-n1c(NS(=O)(=O)[C@H]2C[C@@H](O)CN(c3ncc(F)cc3C#N)C2)nnc1-c1ccc(C)o1 (racemic) [Example 331.0, (3S,5R)-1-(3-Cyano-5-fluoropyridin-2-yl)-N-(4-(2,6-dimethoxyphenyl)-5-(5-methylfuran-2-yl)-4H-1,2,4-triazol-3-yl)-5-hydroxypiperidine-3-sulfonamide and (3R,5S)-1-(3-cyano-5-fluoropyridin-2-yl)-N-(4-(2,6-dimethoxyphenyl)-5-(5-methylfuran-2-yl)-4H-1,2,4-triazol-3-yl)-5-hydroxypiperidine-3-sulfonamide] — 1.8-fold lower, 0.45 nM
- COc1cccc(OC)c1-n1c(NS(=O)(=O)[C@@H](C)[C@@H](O)c2cc3ccccn3n2)nnc1-c1ccc(C)o1 (single isomer, unassigned) [Example 304.0, (1S,2S)—N-(4-(2,6-Dimethoxyphenyl)-5-(5-methyl-2-furanyl)-4H-1,2,4-triazol-3-yl)-1-hydroxy-1-pyrazolo[1,5-a]pyridin-2-yl-2-propanesulfonamide or (1R,2R)—N-(4-(2,6-dimethoxyphenyl)-5-(5-methyl-2-furanyl)-4H-1,2,4-triazol-3-yl)-1-hydroxy-1-pyrazolo[1,5-a]pyridin-2-yl-2-propanesulfonamide] — 20-fold higher, 16 nM
- COc1cccc(OC)c1-n1c(NS(=O)(=O)[C@@H](C)[C@H](O)c2ccc(F)c(C#N)c2)nnc1-c1ccc(C)o1 (single isomer, unassigned) [Example 81.0] — within 1.5-fold, 1.1 nM
- (1S,2R)-N-(4-(2,6-dimethoxyphenyl)-5-(5-methyl-2-furanyl)-4H-1,2,4-triazol-3-yl)-1-hydroxy-1-(5-methyl-2-pyrazinyl)-2-propanesulfonamide or (1R,2S)-N-(4-(2,6-dimethoxyphenyl)-5-(5-methyl-2-furanyl)-4H-1,2,4-triazol-3-yl)-1-hydroxy-1-(5-methyl-2-pyrazinyl)-2-propanesulfonamide [Example 213.0] — 6.8-fold lower, 0.12 nM
- COc1cccc(OC)c1-n1c(NS(=O)(=O)[C@@H](C)[C@H](OC)c2cn3ccccc3n2)nnc1-c1ccc(C)o1 (single isomer, unassigned) [Example 263.0, (1R,2S)—N-(4-(2,6-Dimethoxyphenyl)-5-(5-methyl-2-furanyl)-4H-1,2,4-triazol-3-yl)-1-imidazo[1,2-a]pyridin-2-yl-1-methoxy-2-propanesulfonamide or (1S,2R)—N-(4-(2,6-dimethoxyphenyl)-5-(5-methyl-2-furanyl)-4H-1,2,4-triazol-3-yl)-1-imidazo[1,2-a]pyridin-2-yl-1-methoxy-2-propanesulfonamide] — 9.4-fold lower, 0.086 nM
- COc1cccc(OC)c1-n1c(NS(=O)(=O)[C@H]2CC[C@H]3CCCC(=O)N3C2)nnc1-c1ccc(C)o1 (single isomer, unassigned) [Example 173.0] — 2-fold higher, 1.6 nM

Reference: patent publication US10736883B2, “Triazole furan compounds as agonists of the APJ receptor” (AMGEN INC., priority 2016, dated 2020)
